Measured values as given in publication PMC10247784, “Physiological activation of human and mouse bitter taste receptors by bile acids” (Communications Biology, 2023).
Several values for one entry are separate records, joined by “and”; a condition that tells them apart may be missing. Identical values can stand only once.

Legend:
[1] = test system: HEK293T-Gα16gust44 cells transfected with empty vector (mock); test: Calcium imaging assay (FLIPR), empty vector control (mock); assay type: cell-based
Outline: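 Read-out is Fluo-4 fluorescence change (ΔF/F) after automated application of bile acids (DMSO stocks) to transiently transfected cells. Values are corrected for empty-vector cells and normalized to buffer. Dose-response from three independent experiments in duplicate; threshold concentration set at p < 0.01 versus mock.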

human TAS2R46 = target: T1, human TAS2R46 (Homo sapiens, UniProt P59540); test: Calcium imaging assay (FLIPR), HEK293T-Gα16gust44 cells transfected with human TAS2R46; assay type: cell-based
T1 construct: expressed in transfected cells; host or cells: HEK293T-Gα16gust44
T1 sequence (P59540 1-309): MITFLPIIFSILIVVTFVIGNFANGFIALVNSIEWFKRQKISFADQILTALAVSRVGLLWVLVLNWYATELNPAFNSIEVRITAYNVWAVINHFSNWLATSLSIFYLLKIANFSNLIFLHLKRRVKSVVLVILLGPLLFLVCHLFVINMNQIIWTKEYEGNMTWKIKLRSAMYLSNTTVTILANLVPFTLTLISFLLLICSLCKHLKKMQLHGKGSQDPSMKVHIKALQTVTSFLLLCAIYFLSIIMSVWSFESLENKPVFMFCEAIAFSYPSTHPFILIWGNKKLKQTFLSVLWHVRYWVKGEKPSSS
Outline: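 Bile acids from DMSO stocks are applied to dye-loaded cells one day after transient receptor transfection, and calcium-dependent fluorescence is recorded. Maximum signal is standardized to basal and normalized to buffer-only wells, with empty-vector signal subtracted.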

## C[C@H](CCC(=O)NCCS(=O)(=O)O)[C@H]1CC[C@H]2[C@@H]3[C@H](O)C[C@@H]4C[C@H](O)CC[C@]4(C)[C@H]3C[C@H](O)[C@]12C [Taurocholic Acid, taurocholic acid]
[1]; Conc. 0,01 mM, Mock (sheet TAS2R39)
  Δ F/F: -0.01563
[1]; Conc. 0,1 mM, Mock (sheet TAS2R39)
  Δ F/F: -0.02822
[1]; Conc. 0,03 mM, Mock (sheet TAS2R39)
  Δ F/F: -0.0235
[1]; Conc. 0,3 mM, Mock (sheet TAS2R39)
  Δ F/F: -0.04268
[1]; Conc. 0,001 mM, Mock (sheet TAS2R39)
  Δ F/F: -0.0133
[1]; Conc. 1 mM, Mock (sheet TAS2R39)
  Δ F/F: -0.07998
[1]; Conc. 0,003 mM, Mock (sheet TAS2R39)
  Δ F/F: -0.01654
[1]; Mock (sheet Tas2r123), conc. 0,01 mM
  Δ F/F: -0.001211
[1]; Mock (sheet Tas2r123), conc. 0,1 mM
  Δ F/F: -8.418e-5
[1]; Mock (sheet Tas2r123), conc. 0,03 mM
  Δ F/F: -0.0003225
[1]; Mock (sheet Tas2r123), conc. 0,3 mM
  Δ F/F: -0.001149
[1]; Mock (sheet Tas2r123), conc. 0,001 mM
  Δ F/F: -0.001993
[1]; Mock (sheet Tas2r123), conc. 0,003 mM
  Δ F/F: -0.001321
[1]; Mock (sheet Tas2r144), conc. 0,01 mM
  Δ F/F: 0.001108
[1]; Mock (sheet Tas2r144), conc. 0,1 mM
  Δ F/F: 0.003486
[1]; Mock (sheet Tas2r144), conc. 0,03 mM
  Δ F/F: 0.0001367
[1]; Mock (sheet Tas2r144), conc. 0,3 mM
  Δ F/F: -0.000351
[1]; Mock (sheet Tas2r144), conc. 0,003 mM
  Δ F/F: -0.001298
[1]; Mock, sheet TAS2R4, conc. 0,01 mM
  Δ F/F: -0.0002235
[1]; Mock, sheet TAS2R4, conc. 0,1 mM
  Δ F/F: -0.0008729
[1]; Mock, sheet TAS2R4, conc. 0,03 mM
  Δ F/F: 6.044e-5
[1]; Mock, sheet TAS2R4, conc. 0,3 mM
  Δ F/F: 0.0004439
[1]; Mock, sheet TAS2R4, conc. 0,001 mM
  Δ F/F: -0.0007938
[1]; Mock, sheet TAS2R4, conc. 0,003 mM
  Δ F/F: -0.0007144
[1]; Mock, sheet TAS2R14, conc. 0,01 mM
  Δ F/F: -0.01747
[1]; Mock, sheet TAS2R14, conc. 0,1 mM
  Δ F/F: -0.02159
[1]; Mock, sheet TAS2R14, conc. 0,03 mM
  Δ F/F: -0.01682
[1]; Mock, sheet TAS2R14, conc. 0,3 mM
  Δ F/F: -0.04976
[1]; Mock, sheet TAS2R14, conc. 0,001 mM
  Δ F/F: -0.01145
[1]; Mock, sheet TAS2R14, conc. 1 mM
  Δ F/F: -0.08511
[1]; Mock, sheet TAS2R14, conc. 0,003 mM
  Δ F/F: -0.01455
[1]; Mock, sheet TAS2R46, conc. 0,01 mM
  Δ F/F: -0.0238
[1]; Mock, sheet TAS2R46, conc. 0,1 mM
  Δ F/F: -0.03213
[1]; Mock, sheet TAS2R46, conc. 0,03 mM
  Δ F/F: -0.02754
[1]; Mock, sheet TAS2R46, conc. 0,3 mM
  Δ F/F: -0.04297
[1]; Mock, sheet TAS2R46, conc. 0,001 mM
  Δ F/F: -0.01362
[1]; Mock, sheet TAS2R46, conc. 1 mM
  Δ F/F: -0.07821
[1]; Mock, sheet TAS2R46, conc. 0,003 mM
  Δ F/F: -0.02261
[1]; Mock, sheet Tas2r108, conc. 0,01 mM
  Δ F/F: -0.02048
[1]; Mock, sheet Tas2r108, conc. 0,1 mM
  Δ F/F: -0.02439
[1]; Mock, sheet Tas2r108, conc. 0,03 mM
  Δ F/F: -0.01669
[1]; Mock, sheet Tas2r108, conc. 0,3 mM
  Δ F/F: -0.04405
[1]; Mock, sheet Tas2r108, conc. 0,001 mM
  Δ F/F: -0.01481
[1]; Mock, sheet Tas2r108, conc. 1 mM
  Δ F/F: -0.07176
[1]; Mock, sheet Tas2r108, conc. 0,003 mM
  Δ F/F: -0.01975
[1]; Mock, sheet Tas2r117, conc. 0,01 mM
  Δ F/F: 0.0004005
[1]; Mock, sheet Tas2r117, conc. 0,1 mM
  Δ F/F: 0.0008049
[1]; Mock, sheet Tas2r117, conc. 0,03 mM
  Δ F/F: 0.000104
[1]; Mock, sheet Tas2r117, conc. 0,3 mM
  Δ F/F: -0.0008737
[1]; Mock, sheet Tas2r117, conc. 0,0003 mM
  Δ F/F: -0.0001935
[1]; Mock, sheet Tas2r117, conc. 0,001 mM
  Δ F/F: -0.001035
[1]; Mock, sheet Tas2r117, conc. 0,003 mM
  Δ F/F: -0.0005321
[1]; conc. 0,01 mM, Mock (sheet TAS2R1)
  Δ F/F: -0.002439
[1]; conc. 0,1 mM, Mock (sheet TAS2R1)
  Δ F/F: -0.002601
[1]; conc. 0,03 mM, Mock (sheet TAS2R1)
  Δ F/F: -0.002464
[1]; conc. 0,3 mM, Mock (sheet TAS2R1)
  Δ F/F: -0.001298
[1]; conc. 0,001 mM, Mock (sheet TAS2R1)
  Δ F/F: -0.001546
[1]; conc. 0,003 mM, Mock (sheet TAS2R1)
  Δ F/F: -0.002596
Human TAS2R46; TAS2R46, bile acids, mean
  Efficacy = maximal amplitude (ΔF/F): 0.03422
Human TAS2R46; TAS2R46, bile acids, single replicates, listed as TCA
  Efficacy (maximal amplitude ΔF/F), individual data points: 0.02095 and 0.04014 and 0.04158
Human TAS2R46; TAS2R46, conc. 0,01 mM
  Δ F/F: 0.006451
Human TAS2R46; TAS2R46, conc. 0,1 mM
  Δ F/F: 0.007108
Human TAS2R46; TAS2R46, conc. 0,03 mM
  Δ F/F: 0.004646
Human TAS2R46; TAS2R46, conc. 0,3 mM
  Δ F/F: 0.00491
Human TAS2R46; TAS2R46, conc. 0,001 mM
  Δ F/F: 0.003048
Human TAS2R46; TAS2R46, conc. 1 mM
  Δ F/F: 0.03422
Human TAS2R46; TAS2R46, conc. 0,003 mM
  Δ F/F: 0.00216
Human TAS2R46; lowest concentration with significantly increased fluorescence vs empty vector (p < 0.01)
  Activation threshold concentration TAS2R46: 1000 µM
